Experimental data published in patent US20110123654A1, “SYNERGISTIC ENHANCEMENT OF CELLULAR ERGOGENIC NUTRIENT UPTAKE, LIKE CREATINE OR CARNITINE, WITH TARRAGON” (priority 2008, published 2011).

Test system: blood glucose levels
Experiment: Glucose challenge test in rats
Assay type: in vivo
Details: compared to control; p.o. 30 min before i.p. glucose challenge; non-fasted male Wistar rats
Protocol: A common way of testing for an effect of extracts or new chemical entities on blood glucose levels is the glucose challenge test (Verspohl, E. J.: Recommended testing in diabetes research. Planta Med 68 (7): 581-90, 2002) in which rats are given the extract, control, or a known antidiabetic substance with challenge an intraperitoneal (i.p.) dose of glucose. The extracts or extract PLUS creatine are given orally 30 min. before the glucose challenge. Blood samples are taken sublingual at time points 0, 15, 30, 60, and 120 minutes for the glucose challenge. This sampling scheme ensures to monitor both effects of extracts on the blood glucose levels after glucose challenge closely enough.
Male non-fasted Wistar rats weighing 250-300 g were purchased from Harlan (Indianapolis, Ind., U.S.A). […]
Blood was drawn at the appropriate time points from the sublingual vein after a short halothane anesthesia and stored at 4° C. with addition of heparin. […] The supernatant plasma was taken and analyzed using an autoanalyzer (Merck, Darmstadt). […]
Both percent and AUC data were analyzed by one-way ANOVA and Student-Newman-Keuls Multiple Comparison Test using Graphpad 4.0 Software, San Diego, USA. The AUC (area under the curve) was calculated using the trapezoidal rule without extensions beyond the last time point measured.

Structure (SMILES): CN(CC(=O)O)C(=N)N.O [creatine monohydrate]
- glucose disposal: no effect
